# Laboratory results from patent publication US5010097A, “Novel compounds” (Beecham Pharmaceuticals, priority 1987, dated 1991).
# Target: T1, human collagenase (human lung fibroblast cell line WI-38) (Homo sapiens, UniProt P03956)
# T1 construct: purified from culture supernatants from the human lung fibroblast cell line, WI-38; endogenous in cells; host or cells: WI-38 human lung fibroblasts (enzyme purified from culture supernatants)
# T1 sequence (P03956 100-469): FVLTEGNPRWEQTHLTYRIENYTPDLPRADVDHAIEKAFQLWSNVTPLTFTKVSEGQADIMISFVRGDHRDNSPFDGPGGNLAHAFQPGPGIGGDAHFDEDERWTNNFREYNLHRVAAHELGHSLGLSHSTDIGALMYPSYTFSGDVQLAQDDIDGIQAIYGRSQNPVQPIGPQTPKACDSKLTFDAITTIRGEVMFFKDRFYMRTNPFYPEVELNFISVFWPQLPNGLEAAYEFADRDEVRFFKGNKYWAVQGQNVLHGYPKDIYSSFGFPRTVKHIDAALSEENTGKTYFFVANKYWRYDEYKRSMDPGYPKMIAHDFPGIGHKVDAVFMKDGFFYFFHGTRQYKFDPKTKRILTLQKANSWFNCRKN
# Experiment: Inhibition of Human Lung Fibroblast Collagenase (collagenase inhibitor assay, 14C-acetylated rat skin Type I collagen substrate)
# Assay type: biochemical
# Description: The test is performed essentially as in Cawston and Barrett Anal. Biochem. 99, 340-345 (1979). Compounds for testing are dissolved in methanol and added to purified human collagenase purified from culture supernatants from the human lung fibroblast cell line, WI-38, diluted in a suitable aqueous buffer. After a 5 min pre-incubation at 37° C., the assay tubes are cooled to 4° and ^14 C-acetylated rat skin Type I collagen is added. The assay tubes are incubated at 37° C. overnight. The ^14 C-collagen forms insoluble fibrils which are the substrate for the enzyme.
# To terminate the assay, the assay tubes are spun at 12000 rpm for 25 min. Undigested ^14 C-collagen remains as insoluble fibrils and is pelleted, while digested ^14 C-collagen remains as soluble peptides in the supernatant. A sample of the supernatant is taken for liquid scintillation counting.
# The activity of collagenase inhibitors (IC50 : 50% inhibitory concentration) is expressed as the concentration of compound that inhibits a known (standard) concentration of enzyme by 50%, or as the % inhibition of the collagen degradation caused by the known (standard) concentration of enzyme, at a stated concentration of the compound.
"IC50 (purified human collagenase from WI-38 culture supernatants, 14C-collagen fibrils, 5 min pre-incubation at 37 °C, then 37 °C overnight) [nM]","Inhibition (% inhibition of the collagen degradation) (at 1000 (column head nm), purified human collagenase from WI-38, 37 °C overnight) [%]",Compound
14,–,"CNC(=O)[C@H](Cc1ccc(OC)cc1)NC(=O)C(CC(C)C)C(S)CC(C)=O (single isomer, unassigned) [2 A]"
–,58,CNC(=O)[C@H](Cc1ccc(OC)cc1)NC(=O)C(CC(C)C)C(S)CC(C)=O (some centres unmarked) [2 C/D]
